Data as given in PubChem BioAssay (NCI).
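All cell lines were grown in 96-well plates and treated with compound for 48 hours. GI50: concentration for 50% inhibition of growth. TGI marks complete inhibition of growth.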

What was measured:
Experiment in all cases: NCI-60 cell line screen, 48 h
786-0 renal = tested on: 786-0 renal
A498 renal = tested on: A498 renal
A549 NSCLC = tested on: A549 NSCLC
ACHN renal = tested on: ACHN renal
BT-549 breast = tested on: BT-549 breast
CAKI-1 renal = tested on: CAKI-1 renal
CCRF-CEM leukemia = tested on: CCRF-CEM leukemia
COLO 205 colon = tested on: COLO 205 colon
DU-145 prostate = tested on: DU-145 prostate
EKVX NSCLC = tested on: EKVX NSCLC
HCC-2998 colon = tested on: HCC-2998 colon
HCT-116 colon = tested on: HCT-116 colon
HCT-15 colon = tested on: HCT-15 colon
HL-60(TB) leukemia = tested on: HL-60(TB) leukemia
HOP-62 NSCLC = tested on: HOP-62 NSCLC
HOP-92 NSCLC = tested on: HOP-92 NSCLC
HS 578T breast = tested on: HS 578T breast
HT29 colon = tested on: HT29 colon
IGROV1 ovarian = tested on: IGROV1 ovarian
K-562 leukemia = tested on: K-562 leukemia
KM12 colon = tested on: KM12 colon
LOX IMVI melanoma = tested on: LOX IMVI melanoma
M14 melanoma = tested on: M14 melanoma
MALME-3M melanoma = tested on: MALME-3M melanoma
MCF7 breast = tested on: MCF7 breast
MDA-MB-231 breast = tested on: MDA-MB-231 breast
MDA-MB-435 = tested on: MDA-MB-435
MDA-MB-468 breast = tested on: MDA-MB-468 breast
MOLT-4 leukemia = tested on: MOLT-4 leukemia
NCI-H226 lung = tested on: NCI-H226 lung
NCI-H23 lung = tested on: NCI-H23 lung
NCI-H460 lung = tested on: NCI-H460 lung
NCI-H522 lung = tested on: NCI-H522 lung
NCI/ADR-RES ovarian = tested on: NCI/ADR-RES ovarian
OVCAR-3 ovarian = tested on: OVCAR-3 ovarian
OVCAR-4 ovarian = tested on: OVCAR-4 ovarian
OVCAR-5 ovarian = tested on: OVCAR-5 ovarian
OVCAR-8 ovarian = tested on: OVCAR-8 ovarian
PC-3 prostate = tested on: PC-3 prostate
RPMI-8226 leukemia = tested on: RPMI-8226 leukemia
RXF 393 renal = tested on: RXF 393 renal
SF-268 CNS = tested on: SF-268 CNS
SF-295 CNS = tested on: SF-295 CNS
SF-539 CNS = tested on: SF-539 CNS
SK-MEL-2 melanoma = tested on: SK-MEL-2 melanoma
SK-MEL-28 melanoma = tested on: SK-MEL-28 melanoma
SK-MEL-5 melanoma = tested on: SK-MEL-5 melanoma
SK-OV-3 ovarian = tested on: SK-OV-3 ovarian
SN12C renal = tested on: SN12C renal
SNB-19 CNS = tested on: SNB-19 CNS
SNB-75 CNS = tested on: SNB-75 CNS
SW-620 colon = tested on: SW-620 colon
T-47D breast = tested on: T-47D breast
TK-10 renal = tested on: TK-10 renal
U251 CNS = tested on: U251 CNS
UACC-257 melanoma = tested on: UACC-257 melanoma
UACC-62 melanoma = tested on: UACC-62 melanoma
UO-31 renal = tested on: UO-31 renal

With `COc1ccc2c(c1)c(/C=N/Nc1ccc3ccccc3n1)cn2C` the GI50 (786-0 renal) was 15.3 µM, the TGI (786-0 renal) was 31.6 µM and the GI50 (A498 renal) was 17.4 µM. For the same compound, the TGI (A498 renal) was 33 µM, the GI50 (A549 NSCLC) was 9.48 µM and the TGI (A549 NSCLC) was 28.7 µM. It also gave a GI50 (ACHN renal) of 7.38 µM, a TGI (ACHN renal) of 21.4 µM and a GI50 (BT-549 breast) of 15.2 µM. It also gave a TGI (BT-549 breast) of 30.2 µM, a GI50 (CAKI-1 renal) of 5.95 µM and a TGI (CAKI-1 renal) of 21.3 µM. It also gave a GI50 (CCRF-CEM leukemia) of 5.52 µM, a TGI (CCRF-CEM leukemia) of 86.7 µM and a GI50 (COLO 205 colon) of 15.9 µM. It also gave a TGI (COLO 205 colon) of 39.2 µM, a GI50 (DU-145 prostate) of 12.3 µM and a TGI (DU-145 prostate) of 25.5 µM. It also gave a GI50 (EKVX NSCLC) of 2.3 µM, a TGI (EKVX NSCLC) of 19.4 µM and a GI50 (HCC-2998 colon) of 3.69 µM. For the same compound, the TGI (HCC-2998 colon) was 15.4 µM, the GI50 (HCT-116 colon) was 8.18 µM and the TGI (HCT-116 colon) was 26.5 µM. It also gave a GI50 (HCT-15 colon) of 3.4 µM, a TGI (HCT-15 colon) of 13.3 µM and a GI50 (HL-60(TB) leukemia) of 10.4 µM. The TGI (HL-60(TB) leukemia) was 41.7 µM, the GI50 (HOP-62 NSCLC) was 11.3 µM and the TGI (HOP-62 NSCLC) was 44.9 µM. For the same compound, the GI50 (HOP-92 NSCLC) was 1.58 µM, the TGI (HOP-92 NSCLC) was 11.5 µM and the GI50 (HS 578T breast) was 13 µM. It also gave a TGI (HS 578T breast) of 33.3 µM, a GI50 (HT29 colon) of 5.46 µM and a TGI (HT29 colon) of 23.1 µM. It also gave a GI50 (IGROV1 ovarian) of 10.8 µM, a TGI (IGROV1 ovarian) of 26.5 µM and a GI50 (K-562 leukemia) of 3.36 µM. The TGI (K-562 leukemia) was greater than 100 µM, the GI50 (KM12 colon) was 5.47 µM and the TGI (KM12 colon) was 21.9 µM. The GI50 (LOX IMVI melanoma) was 1.97 µM, the TGI (LOX IMVI melanoma) was 5.27 µM and the GI50 (M14 melanoma) was 13.4 µM. The TGI (M14 melanoma) was 30.1 µM, the GI50 (MALME-3M melanoma) was 18.6 µM and the TGI (MALME-3M melanoma) was 38.7 µM. The GI50 (MCF7 breast) was 4.45 µM, the TGI (MCF7 breast) was 24.2 µM and the GI50 (MDA-MB-231 breast) was 4.36 µM. For the same compound, the TGI (MDA-MB-231 breast) was 19 µM, the GI50 (MDA-MB-435) was 8.41 µM and the TGI (MDA-MB-435) was 23.1 µM. For the same compound, the GI50 (MDA-MB-468 breast) was 3.91 µM, the TGI (MDA-MB-468 breast) was 16.1 µM and the GI50 (MOLT-4 leukemia) was 6.5 µM. For the same compound, the TGI (MOLT-4 leukemia) was 39.1 µM, the GI50 (NCI-H226 lung) was 7.95 µM and the TGI (NCI-H226 lung) was 29.6 µM. For the same compound, the GI50 (NCI-H23 lung) was 11.8 µM, the TGI (NCI-H23 lung) was 28.4 µM and the GI50 (NCI-H460 lung) was 7.8 µM. It also gave a TGI (NCI-H460 lung) of 30 µM, a GI50 (NCI-H522 lung) of 14 µM and a TGI (NCI-H522 lung) of 39 µM. The GI50 (NCI/ADR-RES ovarian) was 10.4 µM, the TGI (NCI/ADR-RES ovarian) was 30.3 µM and the GI50 (OVCAR-3 ovarian) was 13.9 µM. For the same compound, the TGI (OVCAR-3 ovarian) was 31.4 µM, the GI50 (OVCAR-4 ovarian) was 13.2 µM and the TGI (OVCAR-4 ovarian) was 33.3 µM. It also gave a GI50 (OVCAR-5 ovarian) of 11.9 µM, a TGI (OVCAR-5 ovarian) of 24.7 µM and a GI50 (OVCAR-8 ovarian) of 14.7 µM. It also gave a TGI (OVCAR-8 ovarian) of 35.7 µM, a GI50 (PC-3 prostate) of 8.25 µM and a TGI (PC-3 prostate) of 23.9 µM. For the same compound, the GI50 (RPMI-8226 leukemia) was 7.83 µM, the TGI (RPMI-8226 leukemia) was 42.9 µM and the GI50 (RXF 393 renal) was 5.03 µM. The TGI (RXF 393 renal) was 19.1 µM, the GI50 (SF-268 CNS) was 14.3 µM and the TGI (SF-268 CNS) was 31.3 µM. For the same compound, the GI50 (SF-295 CNS) was 11.2 µM, the TGI (SF-295 CNS) was 24.4 µM and the GI50 (SF-539 CNS) was 10.3 µM. It also gave a TGI (SF-539 CNS) of 22.2 µM, a GI50 (SK-MEL-2 melanoma) of 16.8 µM and a TGI (SK-MEL-2 melanoma) of 35.1 µM. For the same compound, the GI50 (SK-MEL-28 melanoma) was 14.9 µM, the TGI (SK-MEL-28 melanoma) was 30.3 µM and the GI50 (SK-MEL-5 melanoma) was 10.4 µM. The TGI (SK-MEL-5 melanoma) was 22.7 µM, the GI50 (SK-OV-3 ovarian) was 16.3 µM and the TGI (SK-OV-3 ovarian) was 36.5 µM. It also gave a GI50 (SN12C renal) of 7.61 µM, a TGI (SN12C renal) of 22.5 µM and a GI50 (SNB-19 CNS) of 15.8 µM. It also gave a TGI (SNB-19 CNS) of 32.4 µM, a GI50 (SNB-75 CNS) of 4.97 µM and a TGI (SNB-75 CNS) of 22.2 µM. For the same compound, the GI50 (SW-620 colon) was 7.46 µM, the TGI (SW-620 colon) was 35.2 µM and the GI50 (T-47D breast) was 8.62 µM. It also gave a TGI (T-47D breast) of 36.5 µM, a GI50 (TK-10 renal) of 22.5 µM and a TGI (TK-10 renal) of 39 µM. The GI50 (U251 CNS) was 13.3 µM, the TGI (U251 CNS) was 32.9 µM and the GI50 (UACC-257 melanoma) was 15.4 µM. The TGI (UACC-257 melanoma) was 30.2 µM, the GI50 (UACC-62 melanoma) was 12.7 µM and the TGI (UACC-62 melanoma) was 26.8 µM. For the same compound, the GI50 (UO-31 renal) was 1.68 µM and the TGI (UO-31 renal) was 13.4 µM.
